The target of one assay is Cannabinoid receptor 1 (Homo sapiens, UniProt P21554). The assay is classed as cell membranes, Chem-1, Membrane. The settings on record: chem-1. Also: in other assays of this panel Not Active means under 50% inhibition at 10 µM.
Assay [1] has as its target T1, Receptor-type tyrosine-protein phosphatase C (Homo sapiens, UniProt P08575).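 Also: inhibition of CD45 enzyme activity measured using DiFMUP as substrate; in other assays of this panel Not Active means under 50% inhibition at 10 µM.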
T1 sequence (P08575 whole entry): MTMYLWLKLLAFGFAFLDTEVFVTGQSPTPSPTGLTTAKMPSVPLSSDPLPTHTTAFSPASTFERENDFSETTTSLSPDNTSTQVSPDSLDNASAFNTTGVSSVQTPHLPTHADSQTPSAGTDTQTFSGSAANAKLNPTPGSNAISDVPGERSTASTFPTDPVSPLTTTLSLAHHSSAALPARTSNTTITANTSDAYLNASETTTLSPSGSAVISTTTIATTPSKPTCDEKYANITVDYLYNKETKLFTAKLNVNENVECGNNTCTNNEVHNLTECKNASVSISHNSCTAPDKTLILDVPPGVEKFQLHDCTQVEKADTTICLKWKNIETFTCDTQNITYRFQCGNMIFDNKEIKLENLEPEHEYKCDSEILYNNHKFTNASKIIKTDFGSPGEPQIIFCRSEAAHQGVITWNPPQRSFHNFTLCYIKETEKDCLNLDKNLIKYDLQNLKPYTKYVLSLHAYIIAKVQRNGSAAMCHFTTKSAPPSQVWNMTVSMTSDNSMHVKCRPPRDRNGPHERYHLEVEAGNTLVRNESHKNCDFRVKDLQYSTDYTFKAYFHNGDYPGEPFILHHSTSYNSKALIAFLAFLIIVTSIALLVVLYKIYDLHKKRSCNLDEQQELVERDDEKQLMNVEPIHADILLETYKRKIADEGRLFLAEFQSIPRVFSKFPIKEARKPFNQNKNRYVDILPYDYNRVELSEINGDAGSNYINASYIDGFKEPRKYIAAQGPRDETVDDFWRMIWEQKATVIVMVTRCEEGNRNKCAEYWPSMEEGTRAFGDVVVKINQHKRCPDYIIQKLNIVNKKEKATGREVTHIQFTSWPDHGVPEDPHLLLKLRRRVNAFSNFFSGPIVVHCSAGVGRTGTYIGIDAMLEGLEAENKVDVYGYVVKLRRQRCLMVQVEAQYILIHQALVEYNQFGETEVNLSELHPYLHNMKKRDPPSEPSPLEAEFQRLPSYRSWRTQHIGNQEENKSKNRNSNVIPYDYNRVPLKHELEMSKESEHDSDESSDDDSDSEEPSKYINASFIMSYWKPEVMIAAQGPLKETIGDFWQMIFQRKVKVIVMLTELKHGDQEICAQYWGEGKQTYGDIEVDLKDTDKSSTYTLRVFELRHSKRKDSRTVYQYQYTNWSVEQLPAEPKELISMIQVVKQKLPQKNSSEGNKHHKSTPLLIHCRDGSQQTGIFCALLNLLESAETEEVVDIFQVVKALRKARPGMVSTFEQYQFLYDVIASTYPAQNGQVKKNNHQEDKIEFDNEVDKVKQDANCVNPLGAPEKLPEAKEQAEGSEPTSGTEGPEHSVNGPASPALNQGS
The arrangement: species or system Escherichia coli.

The target in assay [2] is T2, Alpha-1A adrenergic receptor (Rattus norvegicus, UniProt P43140).
T2 sequence (P43140 whole entry): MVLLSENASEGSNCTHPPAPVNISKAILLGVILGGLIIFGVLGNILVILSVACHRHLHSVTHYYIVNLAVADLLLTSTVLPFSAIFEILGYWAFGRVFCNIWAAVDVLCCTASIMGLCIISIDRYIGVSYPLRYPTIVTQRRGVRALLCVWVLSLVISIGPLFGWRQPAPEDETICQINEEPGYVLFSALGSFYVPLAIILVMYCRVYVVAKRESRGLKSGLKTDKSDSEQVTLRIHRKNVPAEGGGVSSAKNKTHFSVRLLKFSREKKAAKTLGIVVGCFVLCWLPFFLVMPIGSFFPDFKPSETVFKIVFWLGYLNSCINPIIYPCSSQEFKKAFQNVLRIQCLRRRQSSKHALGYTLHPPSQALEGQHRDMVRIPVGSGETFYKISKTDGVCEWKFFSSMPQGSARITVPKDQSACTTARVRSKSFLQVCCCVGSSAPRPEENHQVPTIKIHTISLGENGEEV
Put plainly: DRUGMATRIX: Alpha-1A adrenergic receptor radioligand binding (ligand: prazosin). The assay is classed as cell membranes, Wistar, Submaxillary gland, Membrane. The following applies: Not Active = under 50% inhibition at 10 µM.

Assay [3] is described as follows: DRUGMATRIX: GABAA, Muscimol, Central radioligand binding (ligand: [3H] Muscimol). It is filed as cell membranes, Rattus norvegicus, Wistar, Brain, Membrane. The following applies: Not Active = under 50% inhibition at 10 µM.
Assay [4] deals with Kappa-type opioid receptor (Homo sapiens, UniProt P41145). The experiment in a line: DRUGMATRIX: Opiate kappa (OP2, KOP) radioligand binding (ligand: [3H] Diprenorphine). The assay is classed as cell membranes, HEK293, Membrane. The following applies: Not Active = under 50% inhibition at 10 µM.
Assay [5] deals with Mitogen-activated protein kinase 3 (Homo sapiens, UniProt P27361). Put plainly: DRUGMATRIX: Protein Serine/Threonine Kinase, ERK1 enzyme inhibition (substrate: Myelin Basic Protein). Also noted: species or system Escherichia coli. The settings on record: Not Active = under 50% inhibition at 10 µM.
Chain of Mitogen-activated protein kinase 3 (P27361 whole entry): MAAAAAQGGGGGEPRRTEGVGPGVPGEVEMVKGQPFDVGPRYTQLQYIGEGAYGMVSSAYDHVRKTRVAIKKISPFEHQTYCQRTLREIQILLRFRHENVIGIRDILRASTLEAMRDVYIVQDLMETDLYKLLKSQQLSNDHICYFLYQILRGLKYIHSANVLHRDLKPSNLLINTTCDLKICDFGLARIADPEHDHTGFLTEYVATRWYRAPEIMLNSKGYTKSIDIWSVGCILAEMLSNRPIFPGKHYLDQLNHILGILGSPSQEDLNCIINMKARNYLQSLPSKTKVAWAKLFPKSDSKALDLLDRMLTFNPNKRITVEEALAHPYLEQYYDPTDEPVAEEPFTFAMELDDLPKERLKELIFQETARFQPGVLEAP

Chain of Cannabinoid receptor 1 (P21554 whole entry): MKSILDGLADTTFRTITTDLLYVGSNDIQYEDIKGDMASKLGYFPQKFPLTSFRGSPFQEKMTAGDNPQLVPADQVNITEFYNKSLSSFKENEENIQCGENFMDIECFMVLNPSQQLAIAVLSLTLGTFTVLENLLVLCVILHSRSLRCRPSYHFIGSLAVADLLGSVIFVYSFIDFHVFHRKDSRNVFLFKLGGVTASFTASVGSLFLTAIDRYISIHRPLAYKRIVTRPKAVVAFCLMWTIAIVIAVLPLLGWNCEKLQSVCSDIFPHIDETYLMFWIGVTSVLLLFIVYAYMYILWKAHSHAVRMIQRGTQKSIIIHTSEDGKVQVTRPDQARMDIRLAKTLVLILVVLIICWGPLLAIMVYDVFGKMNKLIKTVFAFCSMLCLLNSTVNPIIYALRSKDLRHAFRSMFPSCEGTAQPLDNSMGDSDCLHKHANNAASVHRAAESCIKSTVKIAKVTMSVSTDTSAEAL
Chain of Kappa-type opioid receptor (P41145 whole entry): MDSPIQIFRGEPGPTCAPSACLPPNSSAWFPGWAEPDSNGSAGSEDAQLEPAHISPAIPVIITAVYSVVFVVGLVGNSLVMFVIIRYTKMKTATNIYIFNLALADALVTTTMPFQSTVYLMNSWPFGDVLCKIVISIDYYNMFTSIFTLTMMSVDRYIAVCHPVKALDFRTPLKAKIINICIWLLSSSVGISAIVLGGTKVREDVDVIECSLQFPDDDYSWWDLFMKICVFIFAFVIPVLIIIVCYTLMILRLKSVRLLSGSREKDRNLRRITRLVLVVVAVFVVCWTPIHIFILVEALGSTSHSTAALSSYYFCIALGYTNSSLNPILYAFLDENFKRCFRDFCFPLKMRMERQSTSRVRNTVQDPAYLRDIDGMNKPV

What is called IC50 is the concentration needed to halve the response being measured. By Ki is commonly meant a measure of affinity in units of concentration, obtained from inhibition or displacement. A lower Ki goes with tighter binding. With `CCOc1nc2cccc(C(=O)O)c2n1Cc1ccc(-c2ccccc2-c2nnn[nH]2)cc1`, the IC50 entry (against Cannabinoid receptor 1; in assay [1]; in assay [2]; in assay [3]; in assay [4] (hek293); in assay [5]) was “Not Active” in each case. Also, in assay [3], the Ki result is “Not Active”.
On to `O=C(O)CCCc1cccs1`, for which the IC50 entry (against Cannabinoid receptor 1; in assay [1]; in assay [2]; in assay [3]; in assay [4] (hek293); in assay [5]) was “Not Active” throughout. Further, the Ki result in assay [3] is given as “Not Active”.
On to `COc1ccccc1N`, for which the IC50 result (against Cannabinoid receptor 1; in assay [1]; in assay [2]; in assay [3]; in assay [4] (hek293); in assay [5]) was “Not Active” each time. In addition, the Ki entry in assay [3] is “Not Active”.
Take `O=C(c1ccccc1F)N1CCC(Cc2ccccc2)CC1`: the IC50 entry (against Cannabinoid receptor 1; in assay [1]; in assay [2]; in assay [3]; in assay [4] (hek293); in assay [5]) was “Not Active” throughout. Further, the Ki result in assay [3] is reported as “Not Active”.
On to `Cc1c(O)cccc1C(=O)N[C@@H](CSc1ccccc1)[C@H](O)CN1C[C@H]2CCCC[C@H]2C[C@H]1C(=O)NC(C)(C)C`, for which the IC50 entry against Cannabinoid receptor 1 was “Not Active”; in assay [1], “Not Active”; in assay [2], “Not Active”; in assay [3], “Not Active”; in assay [4] (read-out: IC50), 36 µM; in assay [5] (read-out: IC50), 22.5 µM. The inhibitory constant (Ki) result was “Not Active” in assay [3] and 14.4 µM in assay [4].
On to `CC(O)COC[C@H]1O[C@@H]2O[C@H]3[C@H](O)[C@@H](O)[C@@H](O[C@H]4[C@H](O)[C@@H](O)[C@@H](O[C@H]5[C@H](O)[C@@H](O)[C@@H](O[C@H]6[C@H](O)[C@@H](O)[C@@H](O[C@H]7[C@H](O)[C@@H](O)[C@@H](O[C@H]8[C@H](O)[C@@H](O)[C@@H](O[C@H]1[C@H](O)[C@H]2O)O[C@@H]8COCC(C)O)O[C@@H]7COCC(C)O)O[C@@H]6COCC(C)O)O[C@@H]5COCC(C)O)O[C@@H]4COCC(C)O)O[C@@H]3COCC(C)O` (stereo partly drawn) [2-HYDROXYPROPYL-BETA-CYCLODEXTRIN], for which the IC50 result (at Cannabinoid receptor 1; in assay [1]; in assay [2]; in assay [3]; in assay [4] (hek293); in assay [5]) was “Not Active” in each case. The Ki entry in assay [3] is “Not Active”.
Turning to `NC(=O)c1cccc(N)c1` [3-AMINOBENZAMIDE], the IC50 result (against Cannabinoid receptor 1; in assay [1]; in assay [2]; in assay [3]; in assay [4] (hek293); in assay [5]) was “Not Active” throughout. For the same compound, the Ki entry in assay [3] is “Not Active”.
As for `C[C@H]1O[C@H](O[C@H]2[C@H](O)[C@@H](O)[C@@H](O[C@H]3[C@H](O)[C@@H](O)C(O)O[C@@H]3CO)O[C@@H]2CO)[C@H](O)[C@@H](O)[C@@H]1N[C@H]1C=C(CO)[C@@H](O)[C@H](O)[C@H]1O` (some centres not stated) [ACARBOSE], the IC50 result (on Cannabinoid receptor 1; in assay [1]; in assay [2]; in assay [3]; in assay [4] (hek293); in assay [5]) was “Not Active” in each case. Further, the Ki result in assay [3] is reported as “Not Active”.
As for `CC[C@H]1[C@@H]2C[C@H]3[C@@H]4N(C)c5ccccc5[C@]45C[C@@H]([C@@H]2[C@H]5O)N3[C@@H]1O` [AJMALINE], the IC50 entry (on Cannabinoid receptor 1; in assay [1]; in assay [2]; in assay [3]; in assay [4] (hek293); in assay [5]) was “Not Active” throughout. Besides, the Ki entry in assay [3] was “Not Active”.
As for `NC12CC3CC(CC(C3)C1)C2` [AMANTADINE], the IC50 entry (on Cannabinoid receptor 1; in assay [1]; in assay [2]; in assay [3]; in assay [4] (hek293); in assay [5]) was “Not Active” each time. In addition, the Ki result in assay [3] was “Not Active”.
In the case of `CO/N=C(\C(=O)N[C@@H]1C(=O)N2C(C(=O)O)=C(COC(C)=O)CS[C@H]12)c1csc(N)n1` [CEFOTAXIME], the IC50 entry (against Cannabinoid receptor 1; in assay [1]; in assay [2]; in assay [3]; in assay [4] (hek293)) was “Not Active” in each case. In assay [3], the Ki result is “Not Active”.
As for `C[N+](C)(C)C[C@H](O)CC(=O)[O-]` [LEVOCARNITINE], the half-inhibitory concentration (IC50) result (on Cannabinoid receptor 1; in assay [1]; in assay [2]; in assay [3]; in assay [5]) was “Not Active” in each case. In addition, the Ki result in assay [3] was “Not Active”.
Take `C[C@]12CC[C@H]3[C@@H](CCC4=CC(=O)CC[C@@H]43)[C@@H]1CC[C@@H]2O` [NANDROLONE]: the IC50 result (on Cannabinoid receptor 1; in assay [1]; in assay [2]; in assay [3]; in assay [5]) was “Not Active” each time. In addition, in assay [3], the inhibition constant (Ki) entry is “Not Active”.
`CN(C)C(=O)Oc1cccc([N+](C)(C)C)c1.[Br-]` [NEOSTIGMINE BROMIDE]: the concentration for half-maximal inhibition (IC50) result (at Cannabinoid receptor 1; in assay [1]; in assay [2]; in assay [3]; in assay [5]) was “Not Active” in each case. For the same compound, the Ki result in assay [3] is listed as “Not Active”.
`C[C@@H]1O[C@@H](O[C@H]2C[C@@H](O)[C@]3(CO)[C@H]4[C@H](O)C[C@]5(C)[C@@H](C6=CC(=O)OC6)CC[C@]5(O)[C@@H]4CC[C@]3(O)C2)[C@H](O)[C@H](O)[C@H]1O` [OUABAIN]: the IC50 result (on Cannabinoid receptor 1; in assay [1]; in assay [2]; in assay [3]; in assay [5]) was “Not Active” each time. In addition, the Ki result in assay [3] was “Not Active”.
As to `NNCCc1ccccc1` [PHENELZINE], the 50% inhibitory concentration (IC50) entry (against Cannabinoid receptor 1; in assay [1]; in assay [2]; in assay [3]; in assay [5]) was “Not Active” in each case. Moreover, the Ki entry in assay [3] was “Not Active”.
In the case of COBALTOUS CHLORIDE, the IC50 entry (on Cannabinoid receptor 1; in assay [1]; in assay [2]; in assay [3]; in assay [5]) was “Not Active” throughout. In addition, the Ki entry (on Cannabinoid receptor 1; in assay [1]; in assay [2]; in assay [3]; in assay [5]) was “Not Active” throughout.
Regarding COLISTIN, the IC50 entry (against Cannabinoid receptor 1; in assay [1]; in assay [2]; in assay [3]; in assay [5]) was “Not Active” each time. The Ki entry (at Cannabinoid receptor 1; in assay [1]; in assay [2]; in assay [3]; in assay [5]) was “Not Active” throughout.

The record behind these values is ChEMBL document CHEMBL1909046, “DrugMatrix in vitro pharmacology data”.
